From paper PMC10004090, “Novel Arylsulfonylhydrazones as Breast Anticancer Agents Discovered by Quantitative Structure-Activity Relationships” (Molecules, 2023)
Read-outs that look alike come from different tables or passages of the source.

Columns and labels:
[1] = tested on: MCF-7; experiment: MTT cytotoxicity test on MCF-7 cell line; type: cell-based, human; details: for IC50: MTT, 72 h; for MCF-7 SI: selectivity index = IC50 on Neuro-2a/IC50 on MCF-7
Protocol: (§1) The anticancer activity of the novel arylsulfonylhydrazones was tested on two BC cell lines: MCF-7 and MDA-MB-231. The cell line MCF-7 originates from human breast adenocarcinoma and expresses estrogen receptor alpha (ER-α), while the cell line MDA-MB-231 represents TNBC adenocarcinoma and lacks any receptor [40]. To test the cytotoxicity of the compounds on healthy cells, they were incubated within Neuro-2a cells, which are mouse neuroblasts isolated from brain tissue.
(§2) The in vitro antineoplastic activity of the newly synthesized compounds was evaluated against human BC cell lines of different molecular types: the triple negative MDA-MB-231 cell line and the ER/PR/Her2 positive variant MCF-7, as well as against mouse neuroblast cells, Neuro-2a. All cell lines were purchased from the German Collection of Microorganisms and Cell Cultures (DSMZ GmbH, Braunschweig, Germany) and cultivated according to supplier’s instructions. Cells were cultured in an RPMI 1640 growth medium supplemented with 10% fetal bovine serum (FBS) and 5% L-glutamine, and incubated under standard conditions of 37 °C and 5% humidified CO2 atmosphere.
(§3) The cytostatic activity of the experimental compounds was investigated using an established methodology for assessing cell viability known as the Mosmann MTT method. The assay is colorimetric and measures the activity of mitochondrial enzymes by reducing the yellow dye MTT (3-(4,5-dimethylthiazol-2-yl)-2,5-diphenyltetrazolium bromide) to violet formazan crystals. Exponential-phased cells were harvested and seeded (100 μL/well) in 96-well plates at 1.5 × 10^5 density and incubated for 24 h. Cell cultures were treated and exposed to various concentrations (200–6.25 μM) of the tested compounds for 72 h, following which cell survival was quantified as percentage (%) relative to untreated control (100% cell viability).
(§4) Experimental data were processed using nonlinear regression analysis in the GraphPad Prism® software program. Semi-logarithmic “dose-response” curves were plotted and half-inhibitory concentrations (IC50) of the screened compounds were calculated for each of the tested tumor cell lines.

[2] = tested on: MDA-MB-231; experiment: MTT cytotoxicity test on MDA-MB-231 cell line; type: cell-based, human; details: for IC50: MTT, 72 h; for MDA-MB-231 SI: selectivity index = IC50 on Neuro-2a/IC50 on MDA-MB-231; for LE MDA-MB-231 Exp: LE = pIC50/N from MTT IC50, 72 h
Protocol: as §1, §2, §3, §4

[3] = tested on: Neuro-2a; experiment: MTT cytotoxicity test on Neuro-2a cells (healthy-cell control); type: cell-based, mouse; details: for IC50: MTT, 72 h, healthy cells
Protocol: as §1, §2, §3, §4

[4] = tested on: MCF-7; details: ligand efficiency LE = pIC50/N; training set 3a–o and cisplatin; cited from earlier work
[5] = tested on: MDA-MB-468; details: ligand efficiency LE = pIC50/N; training set 5a–k and doxorubicin; cited from earlier work
[6] = tested on: MCF-7; details: ligand efficiency LE = pIC50/N; training set 5a–k and doxorubicin; cited from earlier work

CC(=O)n1cc(/C=N/NS(=O)(=O)c2ccccc2)c2ccccc21 [Compound 1c, N’-[(E)-(1-acetyl-1H-indol-3-yl)methylidene]benzenesulfonohydrazide]
IC50 ([1]; Homo sapiens, MCF7, 72 h): < 1 µM | IC50 [1]: 0.9 ± 0.4 µM | IC50 ([2]; Homo sapiens, MDA-MB-231, 72 h): 19.2 ± 3.4 µM | melting point: 209 to 210 °C | IC50 ([3]; Mus musculus, N2a): 36.2 ± 4.3 µM

COc1cc(/C=N\NS(=O)(=O)c2ccc(C)cc2)ccc1F [Compound 3f]
LE MCF-7 [4]: 0.207

COc1ccc(/C=N\NS(=O)(=O)c2ccc(C)cc2)cc1[N+](=O)[O-] [Compound 3g]
LE MCF-7 [4]: 0.143

Cc1ccc(S(=O)(=O)N/N=C\c2cn(CCN3CCOCC3)c3ccccc23)cc1 [Compound 5b]
LE MDA-MB-468 [5]: 0.146 | LE MCF-7 [6]: 0.140

Cc1ccc(S(=O)(=O)N/N=C\c2cccc(C(F)(F)F)c2Cl)cc1 [Compound 3e]
LE MCF-7 [4]: 0.148

O=S(=O)(N/N=C/c1ccc(Cl)cc1)c1ccccc1 [Compound 1h, N’-[(E)-(4-chlorophenyl)methylidene]benzenesulfonohydrazide]
IC50 ([1]; Homo sapiens, MCF7): 157 ± 11.2 µM | MCF-7 SI [1]: 0.747 | IC50 ([2]; Homo sapiens, MDA-MB-231): 63.1 ± 6.9 µM | MDA-MB-231 SI [2]: 1.861

Cc1ccc(S(=O)(=O)N/N=C\c2c(C)cccc2Cl)cc1 [Compound 3l]
LE MCF-7 [4]: 0.180

COc1cccc2c1C(=O)c1c(O)c3c(c(O)c1C2=O)C[C@@](O)(C(=O)CO)C[C@@H]3O[C@H]1C[C@H](N)[C@H](O)[C@H](C)O1 [Doxorubicin]
LE MDA-MB-468 [5]: 0.182 | LE MCF-7 [6]: 0.185

COc1ccc2[nH]cc(/C=N\NS(=O)(=O)c3ccccc3)c2c1 [Compound 1a, N’-[(Z)-(5-methoxy-1H-indol-3-yl)methylidene]benzenesulfonohydrazide]
IC50 ([1]; Homo sapiens, MCF7, 72 h): < 1 µM | IC50 [1]: 0.6 ± 0.2 µM | IC50 ([2]; Homo sapiens, MDA-MB-231, 72 h): 3.1 ± 0.7 µM | IC50 ([3]; Mus musculus, N2a): 5.2 ± 0.9 µM

CC(=O)n1cc(/C=N/NS(=O)(=O)c2ccc(C)cc2)c2ccccc21 [Compound 1d, N’-[(E)-(1-acetyl-1H-indol-3-yl)methylidene]-4-methylbenzenesulfonohydrazide]
IC50 ([1]; Homo sapiens, MCF7, 72 h): 1.8 ± 0.6 µM | MCF-7 SI [1]: 46 | IC50 ([2]; Homo sapiens, MDA-MB-231, 72 h): 65.1 ± 6.1 µM | MDA-MB-231 SI [2]: 1.272 | IC50 ([3]; Mus musculus, N2a): 82.8 ± 8.1 µM

O=S(=O)(N/N=C\c1cn(CCN2CCOCC2)c2ccccc12)c1ccc(Cl)cc1 [Compound 5f]
LE MDA-MB-468 [5]: 0.170 | LE MCF-7 [6]: 0.163

Cc1ccc(S(=O)(=O)N/N=C\c2cccc(Br)n2)cc1 [Compound 3m]
LE MCF-7 [4]: 0.176

COc1ccc2[nH]cc(/C=N/NS(=O)(=O)c3ccc(C)cc3)c2c1 [Compound 1b, N’-[(E)-(5-methoxy-1H-indol-3-yl)methylidene]-4-methylbenzenesulfonohydrazide]
IC50 ([1]; Homo sapiens, MCF7, 72 h): < 1 µM | IC50 [1]: 0.8 ± 0.3 µM | MCF-7 SI [1]: 5.000 | IC50 ([2]; Homo sapiens, MDA-MB-231, 72 h): 8.5 ± 2.1 µM | melting point: 201 to 202 °C | IC50 ([3]; Mus musculus, N2a): 4 ± 0.4 µM

Cc1ccc(S(=O)(=O)N/N=C\c2c[nH]nc2-c2ccccc2)cc1 [Compound 3h]
LE MCF-7 [4]: 0.141

Cc1ccc(S(=O)(=O)N/N=C\c2ccc(F)cc2C(F)(F)F)cc1 [Compound 3j]
LE MCF-7 [4]: 0.148

COc1ccc(S(=O)(=O)N/N=C\c2cn(CCN3CCOCC3)c3ccccc23)cc1 [Compound 5a]
LE MDA-MB-468 [5]: 0.141 | LE MCF-7 [6]: 0.136

Cc1ccc(S(=O)(=O)N/N=C\c2ccc3c(c2)OC(F)(F)O3)cc1 [Compound 3a]
LE MCF-7 [4]: 0.174

COc1ccc(Br)cc1/C=N\NS(=O)(=O)c1ccc(C)cc1 [Compound 3i]
LE MCF-7 [4]: 0.170

O=S(=O)(N/N=C/c1c[nH]c2ccc(Cl)cc12)c1ccccc1 [Compound 1e, N’-[(E)-(5-chloro-1H-indol-3-yl)methylidene]benzenesulfonohydrazide]
IC50 ([1]; Homo sapiens, MCF7, 72 h): < 1 µM | IC50 [1]: 0.5 ± 0.1 µM | MCF-7 SI [1]: 13 | IC50 ([2]; Homo sapiens, MDA-MB-231, 72 h): < 1 µM | IC50 [2]: 0.9 ± 0.2 µM | IC50 ([3]; Mus musculus, N2a): 6.5 ± 1.1 µM

Cc1ccc(S(=O)(=O)N/N=C\c2cc(-c3ccccc3)cs2)cc1 [Compound 3c]
LE MCF-7 [4]: 0.189

COc1cccc(/C=N\NS(=O)(=O)c2ccc(C)cc2)c1Cl [Compound 3k]
LE MCF-7 [4]: 0.197

O=S(=O)(N/N=C\c1cn(CCN2CCOCC2)c2ccccc12)c1ccc2ccccc2c1 [Compound 5h]
LE MDA-MB-468 [5]: 0.110 | LE MCF-7 [6]: 0.116

Cc1ccc(S(=O)(=O)N/N=C\c2ccc(F)c(Oc3ccccc3)c2)cc1 [Compound 3d]
LE MCF-7 [4]: 0.121

Cc1ccc(S(=O)(=O)N/N=C\c2ccccc2OC(F)(F)F)cc1 [Compound 3o]
LE MCF-7 [4]: 0.166

COc1ccc(/C=N/NS(=O)(=O)c2ccccc2)cc1OC [Compound 1f, N’-[(E)-(3,4-dimethoxyphenyl)methylidene]benzenesulfonohydrazide]
IC50 ([1]; Homo sapiens, MCF7): 5.97 ± 2.1 µM | IC50 ([2]; Homo sapiens, MDA-MB-231): 266 ± 19.7 µM | MDA-MB-231 SI [2]: 0.410

O=[N+]([O-])c1ccc(S(=O)(=O)N/N=C\c2cn(CCN3CCOCC3)c3ccccc23)cc1 [Compound 5e]
LE MDA-MB-468 [5]: 0.138 | LE MCF-7 [6]: 0.128

O=S(=O)(N/N=C\c1cn(CCN2CCOCC2)c2ccccc12)c1ccc(F)cc1 [Compound 5d]
LE MDA-MB-468 [5]: 0.161 | LE MCF-7 [6]: 0.150

Cc1ccc(S(=O)(=O)N/N=C\c2cc(Br)cs2)cc1 [Compound 3b]
LE MCF-7 [4]: 0.203

O=S(=O)(N/N=C\c1cn(CCN2CCOCC2)c2ccccc12)c1ccccc1 [Compound 5c]
LE MDA-MB-468 [5]: 0.149 | LE MCF-7 [6]: 0.143

N’-[(E)-(5-methoxy-1-methyl-1H-indol-3-yl)methylidene]benzenesulfonohydrazide [Compound 1i]
LE MCF-7 Exp ([1]; LE = pIC50/N from MTT IC50, 72 h): 0.158 | IC50 [1]: 165 ± 8.6 µM | MCF-7 SI [1]: 0.818 | LE MDA-MB-231 Exp [2]: 0.178 | IC50 [2]: 54.8 ± 7.4 µM | MDA-MB-231 SI [2]: 2.462 | Neuro-2a LE ([3]; LE = pIC50/N): 0.161 | IC50 [3]: 135 ± 10.9 µM

Cc1ccc(S(=O)(=O)N/N=C\c2cccn2C)cc1 [Compound 3n]
LE MCF-7 [4]: 0.207

COc1ccc(/C=N/NS(=O)(=O)c2ccc(C)cc2)cc1OC [Compound 1g, N’-[(E)-(3,4-dimethoxyphenyl)methylidene]-4-methylbenzenesulfonohydrazide]
IC50 ([1]; Homo sapiens, MCF7): 56.1 ± 8.4 µM | MCF-7 SI [1]: 2.415 | IC50 ([2]; Homo sapiens, MDA-MB-231): > 500 µM

N.N.[Cl][Pt][Cl] [Cisplatin, reference compound]
IC50 [1]: 50.3 ± 6.5 µM | LE MDA-MB-231 Exp [2]: 0.840 | IC50 [2]: 63.4 ± 7.2 µM | LE MCF-7 [4]: 0.931
